For 12 compounds, CC50 and EC50 results are on record in patent publication US11541055B2, “Inhibitors of human immunodeficiency virus replication” (ViiV Healthcare UK (No. 5) LIMITED, priority 2018, dated 2023).

Data set [1] in a line: Compound cytotoxicity, XTT-based colorimetric assay. In kind it is cell-based. As to conditions: human; uninfected MT2 cells, day 4, XTT. In outline:
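Run under the antiviral-assay protocol but without virus. Viability was read on day 4 and CC50 values were derived from the readout.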

Data set [2] deals with recombinant NL4-3 virus (Renilla luciferase) in MT-2 cells. The data set can be described thus: HIV cell culture assay (antiviral activity, luciferase readout). Format: cell-based. As to conditions: Renilla, NL43. In outline:
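MT-2 cells were infected with recombinant NL4-3 virus carrying Renilla luciferase in place of part of nef. Cells were cultured 4–5 days with serially diluted compound, and luciferase was measured with a live-cell substrate. EC50 was calculated from the median effect equation.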

The term CC50 denotes the concentration that lowers cell viability or growth by half. By EC50 is commonly meant the concentration giving half of the maximal effect.

Turning to `Cc1cc(C)nc(-c2ccc3c(=O)n(-c4ccc(Cl)c5c(NS(C)(=O)=O)nn(C)c45)c([C@H](Cc4cc(F)cc(F)c4)NC(=O)Cn4nc(C(F)F)c5c4C(F)(F)[C@@H]4C[C@H]54)nc3c2)c1` (atropisomer, axis not shown; (P)) [Example 1, N—((S)-1-((3P)-3-(4-chloro-1-methyl-3-(methylsulfonamido)-1H-indazol-7-yl)-7-(4,6-dimethylpyridin-2-yl)-4-oxo-3,4-dihydroquinazolin-2-yl)-2-(3,5-difluorophenyl)ethyl)-2-((3bS,4aR)-3-(difluoromethyl)-5,5-difluoro-3b,4,4a,5-tetrahydro-1H-cyclopropa[3,4]cyclopenta[1,2-c]pyrazol-1-yl)acetamide], the CC50 at 4 days in data set [1] was greater than 500 nM. For the same compound, the concentration for a half-maximal effect (EC50) in data set [2] worked out at 0.15 nM.

For `Cc1ccnc(-c2ccc3c(=O)n(-c4ccc(Cl)c5c(NS(C)(=O)=O)nn(C)c45)c([C@H](Cc4cc(F)cc(F)c4)NC(=O)Cn4nc(C(F)F)c5c4C(F)(F)[C@@H]4C[C@H]54)nc3c2)c1` (atropisomer, axis not shown; (P)) [Example 2, N—((S)-1-((3P)-3-(4-chloro-1-methyl-3-(methylsulfonamido)-1H-indazol-7-yl)-7-(4-methylpyridin-2-yl)-4-oxo-3,4-dihydroquinazolin-2-yl)-2-(3,5-difluorophenyl)ethyl)-2-((3bS,4aR)-3-(difluoromethyl)-5,5-difluoro-3b,4,4a,5-tetrahydro-1H-cyclopropa[3,4]cyclopenta[1,2-c]pyrazol-1-yl)acetamide], in data set [1], the CC50 at 4 days was greater than 500 nM. In addition, in data set [2], the EC50 came to 0.059 nM.

With `Cn1nc(NS(C)(=O)=O)c2c(Cl)ccc(-n3c([C@H](Cc4cc(F)cc(F)c4)NC(=O)Cn4nc(C(F)F)c5c4C(F)(F)[C@@H]4C[C@H]54)nc4cc(-c5nccc(C(F)(F)F)n5)ccc4c3=O)c21` (atropisomer, axis not shown; (P)) [Example 3, N—((S)-1-((3P)-3-(4-chloro-1-methyl-3-(methylsulfonamido)-1H-indazol-7-yl)-4-oxo-7-(4-(trifluoromethyl)pyrimidin-2-yl)-3,4-dihydroquinazolin-2-yl)-2-(3,5-difluorophenyl)ethyl)-2-((3bS,4aR)-3-(difluoromethyl)-5,5-difluoro-3b,4,4a,5-tetrahydro-1H-cyclopropa[3,4]cyclopenta[1,2-c]pyrazol-1-yl)acetamide], the half-maximal cytotoxic concentration (CC50) at 4 days in data set [1] was greater than 500 nM. Also, in data set [2], the EC50 worked out at 0.1 nM.

Consider `Cn1nc(NS(C)(=O)=O)c2c(Cl)ccc(-n3c([C@H](Cc4cc(F)cc(F)c4)NC(=O)Cn4nc(C(F)F)c5c4C(F)(F)[C@@H]4C[C@H]54)nc4cc(-c5cc(S(C)(=O)=O)ccn5)ccc4c3=O)c21` (atropisomer, axis not shown; (P)) [Example 4, N—((S)-1-((3P)-3-(4-chloro-1-methyl-3-(methylsulfonamido)-1H-indazol-7-yl)-7-(4-(methylsulfonyl)pyridin-2-yl)-4-oxo-3,4-dihydroquinazolin-2-yl)-2-(3,5-difluorophenyl)ethyl)-2-((3bS,4aR)-3-(difluoromethyl)-5,5-difluoro-3b,4,4a,5-tetrahydro-1H-cyclopropa[3,4]cyclopenta[1,2-c]pyrazol-1-yl)acetamide], for which, in data set [1], the CC50 at 4 days was greater than 500 nM. In data set [2], the concentration for a half-maximal effect (EC50) is 0.053 nM.

`COc1ccc(-c2ccc3c(=O)n(-c4ccc(Cl)c5c(NS(C)(=O)=O)nn(C)c45)c([C@H](Cc4cc(F)cc(F)c4)NC(=O)Cn4nc(C(F)F)c5c4C(F)(F)[C@@H]4C[C@H]54)nc3c2)c(C)n1` (atropisomer, axis not shown; (P)) [Example 5, N—((S)-1-((3P)-3-(4-chloro-1-methyl-3-(methylsulfonamido)-1H-indazol-7-yl)-7-(6-methoxy-2-methylpyridin-3-yl)-4-oxo-3,4-dihydroquinazolin-2-yl)-2-(3,5-difluorophenyl)ethyl)-2-((3bS,4aR)-3-(difluoromethyl)-5,5-difluoro-3b,4,4a,5-tetrahydro-1H-cyclopropa[3,4]cyclopenta[1,2-c]pyrazol-1-yl)acetamide]: the CC50 at 4 days in data set [1] is greater than 500 nM. Further, in data set [2], the half-maximal effective concentration (EC50) amounted to 0.94 nM.

In the case of `Cc1nc(C)c(-c2ccc3c(=O)n(-c4ccc(Cl)c5c(NS(C)(=O)=O)nn(C)c45)c([C@H](Cc4cc(F)cc(F)c4)NC(=O)Cn4nc(C(F)F)c5c4C(F)(F)[C@@H]4C[C@H]54)nc3c2)s1` (atropisomer, axis not shown; (P)) [Example 6, N—((S)-1-((3P)-3-(4-chloro-1-methyl-3-(methylsulfonamido)-1H-indazol-7-yl)-7-(2,4-dimethylthiazol-5-yl)-4-oxo-3,4-dihydroquinazolin-2-yl)-2-(3,5-difluorophenyl)ethyl)-2-((3bS,4aR)-3-(difluoromethyl)-5,5-difluoro-3b,4,4a,5-tetrahydro-1H-cyclopropa[3,4]cyclopenta[1,2-c]pyrazol-1-yl)acetamide], in data set [1], the CC50 at 4 days was greater than 500 nM. Further, the EC50 in data set [2] is 0.12 nM.

Regarding `COc1ccc(-c2ccc3c(=O)n(-c4ccc(Cl)c5c(NS(C)(=O)=O)nn(C)c45)c([C@H](Cc4cc(F)cc(F)c4)NC(=O)Cn4nc(C(F)F)c5c4C(F)(F)[C@@H]4C[C@H]54)nc3c2)nn1` (atropisomer, axis not shown; (P)) [Example 7, N—((S)-1-((3P)-3-(4-chloro-1-methyl-3-(methylsulfonamido)-1H-indazol-7-yl)-7-(6-methoxypyridazin-3-yl)-4-oxo-3,4-dihydroquinazolin-2-yl)-2-(3,5-difluorophenyl)ethyl)-2-((3bS,4aR)-3-(difluoromethyl)-5,5-difluoro-3b,4,4a,5-tetrahydro-1H-cyclopropa[3,4]cyclopenta[1,2-c]pyrazol-1-yl)acetamide], in data set [1], the cytotoxic concentration (CC50) at 4 days is greater than 500 nM. Besides, the concentration for a half-maximal effect (EC50) in data set [2] is 0.053 nM.

Take `Cn1nc(NS(C)(=O)=O)c2c(Cl)ccc(-n3c([C@H](Cc4cc(F)cc(F)c4)NC(=O)Cn4nc(C(F)F)c5c4C(F)(F)[C@@H]4C[C@H]54)nc4cc(-c5ncccc5S(C)(=O)=O)ccc4c3=O)c21` (atropisomer, axis not shown; (P)) [Example 8, N—((S)-1-((3P)-3-(4-chloro-1-methyl-3-(methylsulfonamido)-1H-indazol-7-yl)-7-(3-(methylsulfonyl)pyridin-2-yl)-4-oxo-3,4-dihydroquinazolin-2-yl)-2-(3,5-difluorophenyl)ethyl)-2-((3bS,4aR)-3-(difluoromethyl)-5,5-difluoro-3b,4,4a,5-tetrahydro-1H-cyclopropa[3,4]cyclopenta[1,2-c]pyrazol-1-yl)acetamide]: the 50% cytotoxic concentration (CC50) at 4 days in data set [1] was greater than 500 nM. Moreover, in data set [2], the EC50 was determined as 0.078 nM.

In data set [1], `COc1cnc(C)nc1-c1ccc2c(=O)n(-c3ccc(Cl)c4c(NS(C)(=O)=O)nn(C)c34)c([C@H](Cc3cc(F)cc(F)c3)NC(=O)Cn3nc(C(F)F)c4c3C(F)(F)[C@@H]3C[C@H]43)nc2c1` (atropisomer, axis not shown; (P)) [Example 9, N—((S)-1-((3P)-3-(4-chloro-1-methyl-3-(methylsulfonamido)-1H-indazol-7-yl)-7-(5-methoxy-2-methylpyrimidin-4-yl)-4-oxo-3,4-dihydroquinazolin-2-yl)-2-(3,5-difluorophenyl)ethyl)-2-((3bS,4aR)-3-(difluoromethyl)-5,5-difluoro-3b,4,4a,5-tetrahydro-1H-cyclopropa[3,4]cyclopenta[1,2-c]pyrazol-1-yl)acetamide] had a CC50 at 4 days greater than 500 nM. Besides, the half-maximal effective concentration (EC50) in data set [2] is 0.058 nM.

`COc1cccnc1-c1ccc2c(=O)n(-c3ccc(Cl)c4c(NS(C)(=O)=O)nn(C)c34)c([C@H](Cc3cc(F)cc(F)c3)NC(=O)Cn3nc(C(F)F)c4c3C(F)(F)[C@@H]3C[C@H]43)nc2c1` (atropisomer, axis not shown; (P)) [Example 11, N—((S)-1-((3P)-3-(4-chloro-1-methyl-3-(methylsulfonamido)-1H-indazol-7-yl)-7-(3-methoxypyridin-2-yl)-4-oxo-3,4-dihydroquinazolin-2-yl)-2-(3,5-difluorophenyl)ethyl)-2-((3bS,4aR)-3-(difluoromethyl)-5,5-difluoro-3b,4,4a,5-tetrahydro-1H-cyclopropa[3,4]cyclopenta[1,2-c]pyrazol-1-yl)acetamide] displayed a CC50 at 4 days in data set [1] greater than 500 nM. In addition, in data set [2], the EC50 came to 0.12 nM.

Compound `Cn1nc(NS(C)(=O)=O)c2c(Cl)ccc(-n3c([C@H](Cc4cc(F)cc(F)c4)NC(=O)Cn4nc(C(F)F)c5c4C(F)(F)[C@@H]4C[C@H]54)nc4cc(-c5ccccc5C(F)F)ccc4c3=O)c21` (atropisomer, axis not shown; (P)) [Example 12, N—((S)-1-((3P)-3-(4-chloro-1-methyl-3-(methylsulfonamido)-1H-indazol-7-yl)-7-(2-(difluoromethyl)phenyl)-4-oxo-3,4-dihydroquinazolin-2-yl)-2-(3,5-difluorophenyl)ethyl)-2-((3bS,4aR)-3-(difluoromethyl)-5,5-difluoro-3b,4,4a,5-tetrahydro-1H-cyclopropa[3,4]cyclopenta[1,2-c]pyrazol-1-yl)acetamide] had a CC50 at 4 days in data set [1] greater than 500 nM. Besides, the concentration giving a half-maximal response (EC50) in data set [2] was determined as 0.37 nM.

`Cn1nc(NS(C)(=O)=O)c2c(Cl)ccc(-n3c([C@H](Cc4cc(F)cc(F)c4)NC(=O)Cn4nc(C(F)F)c5c4C(F)(F)[C@@H]4C[C@H]54)nc4cc(-c5ccccc5OC(F)(F)F)ccc4c3=O)c21` (atropisomer, axis not shown; (P)) [Example 14, N—((S)-1-((3P)-3-(4-chloro-1-methyl-3-(methylsulfonamido)-1H-indazol-7-yl)-4-oxo-7-(2-(trifluoromethoxy)phenyl)-3,4-dihydroquinazolin-2-yl)-2-(3,5-difluorophenyl)ethyl)-2-((3bS,4aR)-3-(difluoromethyl)-5,5-difluoro-3b,4,4a,5-tetrahydro-1H-cyclopropa[3,4]cyclopenta[1,2-c]pyrazol-1-yl)acetamide] displayed a cytotoxic concentration (CC50) at 4 days in data set [1] greater than 500 nM. Also, the EC50 in data set [2] was 2.1 nM.
